Read-outs that look alike come from different tables or passages of the source.
Tested on: gastrischen Drüsenschläuche
Test: 14C-aminopyrine accumulation in isolated gastric glands (inhibition of gastric acid secretion)
Type: cell-based, Kaninchen
Details: read-out: IC50 Inhibition der stimulierten AP-Akkumulation
Description: Methode: Die Hochdruckperfusion des […] wurde nach der Beschreibung von Berglindh und Obrink (1) und unter Anwendung einiger Modifikationen, wie sie an anderer Stelle berichtet werden (2), ausgeführt. Kaninchen (männlich und weiblich, 2 - 3 kg) wurden schmerzfrei unter Narkose durch zervikale Dislokation getötet und der Magen wie in der Literatur berichtet perfundiert (1). Die Mukosa des Magenfundus wurde mit einem Schaber entfernt und mittels einer Schere zerkleinert. Die so erhaltenen Mukosafragmente wurden mit_1 mg/ml Kollagenase in einem Medium bestehend aus 100 mM NaCl, 5 mM KCI, 0,5 mM NaH2PO4, 1 mM Na2HPO4, 1 mM CaCl2, 1,5 mM MgCl2, 20 mM NaHCO3, 20 mM HEPES, 2mg/ml Glukose und 1 mg/ml Kaninchenalbumin für 30 - 45 min bei 37°C behandelt, wobei der pH des Gemisches mit Tris-Puffer auf 7,4 eingestellt war. Die Drüsenschläuche (gastric glands) wurden durch ein Nylonnetz zur Entfernung grober Fragmente filtriert und 3 mal mit Inkubationsmedium gespült. Anschließend wurden die Drüsenschläuche im Medium in einer Konzentration von 2 - 4 mg Trockengewicht/ml suspendiert.
Als Maß für die Fähigkeit der gastrischen Drüsenschläuche zur Säurebildung wurde die Akkumulation von ^14C-Aminopyrin (^14C-AP) bestimmt (3). Hierzu wurden Proben von 1 ml Drüsenschlauchsuspension mit ^14C-AP (1 µM, 200 000 cpm) und der zu testenden Verbindung inkubiert und für 20 - 30 min bei 37°C in einem schüttelnden Wasserbad behandelt. Anschließend wurden Histamin (100 µM), dbcAMP (0.3 oder 1 mM) oder Carbachol (100 µM) zugegeben, gefolgt von einer zweiten Inkubationsdauer von 30 - 45 min.. Die Inkubation wurde anschließend beendet durch Zentrifugiren der Proben für eine halbe Minute. Die überstehende Flüssigkeit wurde entfernt und die erhaltenen pellets in 1 ml NaOH gelöst. Proben der Pellets und des Flüssigkeitsüberstands wurden im Szintillationszähler gemessen. Das AP-Verhältnis der intraglandulären und extraglandulären Radioaktivität wurde nach Sack und Spenney (4) berechnet. Alle Bestimmungen wurden dreifach durchgeführt.

- IC50 (after Carbachol stimulation (100 µM)): 5 µM
- IC50 (after Histamin stimulation (100 µM)): 20 µM
- IC50 (after dbcAMP stimulation (0.3 or 1 mM)): 20 µM
Compound: CCS(=O)(=O)N(C)[C@@H]1c2cc(C#N)ccc2OC(C)(C)[C@H]1O (relative stereo) [293B, trans-6-Cyano-4-(N-ethylsulfonyl-N-methylamino)-3-hydroxy-2,2-dimethyl-chroman]

Source: patent EP0807629B1, “Sulfonamido substituted chromane derivatives, method for their preparation, their use as medicaments or diagnostic agents aswell as medicaments containing them” (Aventis Pharma Deutschland GmbH, priority 1996, dated 1997)
